PubChem BioAssay (NCI)
Where “and” joins values, the source holds several entries; their conditions need not be identical. Equal entries are not always repeated.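 Cultured in 96-well plates, cells were exposed to test compound for 48 hours across five concentrations. GI50 is the concentration that inhibits growth by half. TGI denotes the concentration required for complete inhibition of growth.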

The compounds below were run on MDA-MB-468 breast (assay: growth of human tumour cells (NCI), 48 h).

Row | Compound | GI50 | TGI
1 | Cn1cc(C2=C(c3cn(C)c4cc(N)ccc34)C(=O)NC2=O)c2ccccc21 | 1.56 µM | 7.97 µM
2 | CC1(C)[C@@H](OC(N)=O)C=C[C@]2(CO)[C@H]3CC[C@]4(C)[C@@H](c5ccc(=O)oc5)[C@@H](Cl)C[C@]4(O)C3=CC[C@@H]12 | 0.0149 µM | 0.0674 µM
3 | CCCCNC(=O)Oc1ccc(/C(=C(/CC)Cc2ccccc2)c2ccc(OCCN3CCCCCC3)cc2)cc1 | 21.5 µM | 46.9 µM
4 | C[PH+](c1nc2ccccc2nc1[PH+](C)C(C)(C)C)C(C)(C)C.C[PH+](c1nc2ccccc2nc1[PH+](C)C(C)(C)C)C(C)(C)C.[Au+].[Cl-] (stereo not drawn) | 0.0248 µM | 0.0904 µM
5 | COc1cc2c(c(OC)c1OC)-c1ccc(O)c(=O)cc1[C@@H](NC(C)=O)CC2 | 4.11 µM | 27.5 µM
6 | CCCCN(CCCC)CCc1c(C)cc(C)c(CCN(CCCC)CCCC)c1O | 1.83 µM | 5.51 µM
7 | Oc1c(Cl)cc(Cl)cc1Sc1cc(Cl)cc(Cl)c1O | 2.81 µM and 2.59 µM | 8.85 µM and 7.83 µM
8 | CC[C@H](Nc1nc(N)nc(C2CC2)c1C#N)c1nc2cccc(NCc3ccc(C(=O)NO)cc3)c2c(=O)n1-c1ccccc1 | 1.73 µM | 4.87 µM
9 | CCN1C(=O)N(CC)C2SC(N/N=C/c3ccc(F)cc3)=NC21 (stereo not drawn) | 0.4 µM | –
10 | Oc1c(CN2CCCC2)cc(CSCc2ccccc2)c2cccnc12 | 1.2 µM | 3.24 µM
11 | CNCCNc1nc2ccccc2c2c(=O)c3cc(OC)ccc3sc12 | 1.49 µM | 3.03 µM
12 | Cc1cnc(Nc2ccc(OCCN3CCCC3)cc2)nc1Nc1cccc(S(=O)(=O)NC(C)(C)C)c1 | 0.0741 µM and 0.483 µM | 0.792 µM and 3.11 µM
13 | CC(=O)c1cccc(-c2cccc(-c3ccn(CCN4CCOCC4)n3)c2)c1 | 15.2 µM | > 20 µM
14 | COc1ccc(NC(=O)n2nc(/C=C\c3ccc(O)c(OC)c3)cc2/C=C\c2ccc(O)c(OC)c2)cc1 | 3.55 µM | 21.6 µM
15 | C[C@]12CC[C@@H](OC(=O)N(CCCl)N=O)C[C@@H]1CC[C@@H]1[C@@H]2CC[C@]2(C)C(=O)CC[C@@H]12 | 0.867 µM | 12.3 µM
16 | NC(=O)c1c(NC(=O)c2ccccc2C(F)(F)F)sc2c1CCC(=O)C2 | 2.25 µM | 6.09 µM
17 | CC[C@]1(O)C[C@@H]2CN(CCc3c([nH]c4ccccc34)[C@@](C(=O)OC)(c3cc4c(cc3OC)N(C)[C@H]3[C@@](O)(C(N)=O)[C@H](O)[C@]5(CC)[C@@H]6C[C@@H]6CN6CC[C@]43[C@@H]65)C2)C1 | < 0.00333 µM | 0.262 µM
18 | COc1cc2ncnc3c2cc1OCCCCCN(C)Cc1ccc(Br)cc1N3 | 0.0463 µM and 0.0393 µM | 0.4 µM and 0.453 µM
19 | CCCCCCNC(=O)n1cc(F)c(=O)[nH]c1=O | 10 µM | 26.3 µM
20 | CCOC(=O)Nc1nc2cc(OCC)ccc2s1 | 2.62 µM | > 100 µM
21 | COc1cc(/C=C2\CN(C(=O)CCN3CCC(=NO)CC3)C/C(=C\c3cc(OC)c(OC)c(OC)c3)C2=O)cc(OC)c1OC | 0.342 µM | 1.27 µM
22 | COc1ccc(/C=C\c2cc(OC)c(OC)c(OC)c2)c(NS(=O)(=O)c2ccc(Cl)cc2)c1O | 0.0367 µM | 15 µM
23 | CCCCCCNC(=O)Oc1ccc(/C(=C(/C)Cc2ccc(OC)cc2)c2ccc(OCCN(C)C)cc2)cc1 | 5.4 µM | 10.6 µM
24 | COC(=O)[C@H]1[C@H]2C[C@@H]3c4[nH]c5cc(OC)ccc5c4CCN3C[C@H]2C[C@@H](OC(=O)/C=C/c2cc(OC)c(OC)c(OC)c2)[C@@H]1OC | 3.27 µM | 11.6 µM
25 | CC[C@@]12C=CCN3CC[C@]4(c5cc(NC(=O)COc6cc(OCC(=O)Nc7cc8c(cc7OC)N(C)[C@H]7[C@@](O)(C(=O)OC)[C@H](OC(C)=O)[C@]9(CC)C=CCN%10CC[C@]87[C@@H]%109)cc7oc(-c8ccccc8)cc(=O)c67)c(OC)cc5N(C)[C@@H]4[C@](O)(C(=O)OC)[C@H]1OC(C)=O)[C@H]32 | 2.25 µM | 8.87 µM
26 | N=c1ccc2nc3c(cc(N)c4ccccc43)oc-2c1 | 0.0865 µM | 0.423 µM
27 | COc1ccc([C@@H](O)c2cc(-c3ncnc4cc(N5CCOCC5)ccc34)c(F)cc2Cl)nn1 | 1.69 µM | 8.26 µM
